Measurements taken from article PMC13021292, “Safety, tolerability and pharmacokinetics of DNDI‐6148, a novel agent for leishmaniasis: A randomized, controlled, single ascending dose study in healthy participants” (British Journal of Clinical Pharmacology, 2025).
Read-outs that look alike come from different tables or passages of the source.

How the values were obtained:
[1] = Urinary excretion and renal clearance, single ascending oral dose study; assay type: in vivo, human; conditions: single oral 10–380 mg
Protocol: Urine was collected up to 72 h during the following intervals: pre‐dose, D1T0h – D1T12h, D1T12h – D2T24h, D2T24h – D3T48h and D3T48h – D4T72h. Urine was collected in containers containing 20 g citric acid monohydrate and stored at 4 °C for a maximum of 43 h. All urine passed during each interval period was combined and at the end of the interval, the pool of acidified urine was vigorously mixed; two aliquots were prepared, each with 1 mL of acidified urine and 1 mL of aqueous solution of 50 g/L bovine serum albumin (BSA) and 9 g/L NaCl.
Tubes of acidified urine/BSA samples were capped immediately for each time point and stored at −80 °C. Samples of both acidified plasma and acidified urine/BSA were shipped for bioanalysis on dry ice by a specialized carrier. Temperatures were monitored using a data logger during transport.

[2] = Safety and tolerability (adverse events), single ascending oral dose study; assay type: in vivo, human
Protocol: The primary endpoint was assessment of the safety and tolerability of DNDI‐6148 by evaluation of the following parameters: adverse events (AEs), physical examination (including body weight), clinical neurological examination, vital signs, 12‐lead ECG, clinical laboratory (including serum chemistry, haematology, hormonology and urinalysis) and psychological and cognitive examinations.
(§1) Safety was assessed by monitoring AEs throughout the study. Other safety monitoring included 12‐lead ECG recordings, measurement of vital signs, physical and neurological examinations, haematology, blood biochemistry and urinalysis and, for the last four participants of the 160 mg cohort and onwards, CRP and TNFα.
To minimize risk, participants were dosed sequentially, using sentinels in each cohort (one receiving DNDI‐6148, one placebo), as per European Medicines Agency guidelines.[12] Stopping criteria used in that study are described in Supplementary Information, Text S2. If the previous dose was well tolerated, with no safety concerns, the Safety Review Committee decided on dose escalation after reviewing blinded safety and PK data from all available cohorts.

[3] = Cardiac safety: ECG QTcF, QTcG, heart rate; assay type: in vivo, human
Protocol: as §1
Triplicate ECGs extracted from 24-hour Holter recordings at predefined time points aligned with the pharmacokinetic (PK) sampling were used for additional cardiac safety analyses. […] For the group correction, α was estimated as the slope of the linear relationship between ln(QT) and ln(RR), based on drug-free (placebo and pre-dose) data (Figure S1).

[4] = human, in vivo, po, 220 mg
Protocol: (§2) This was a FIH, phase I, double‐blind, parallel, single ascending dose (SAD) study of DNDI‐6148 arginine monohydrate, administered as an oral suspension to healthy male participants. Cohorts 1–8 each included eight participants and were administered 10, 20, 40, 80, 160, 220, 300 or 380 mg (free form) of DNDI‐6148 (in six participants) or placebo (two participants).
(§3) At the clinical site, a suspension was prepared extemporaneously by the pharmacist within 24 h prior to administration to participants (the timepoint for which stability data of the suspension were available). The IP powder was suspended in 30 mL ORA‐Sweet® (Paddock Laboratories, LLC, Minneapolis, USA) for taste and colour masking. Participants were administered between 4 and 25 mL of the suspensions, followed by the ingestion of 250 mL tap water. Opaque precision syringes were used to administer the solutions to minimize the risk of unblinding. To preclude any dietary effects on the PK of DNDI‐6148, participants fasted for 9 h before they received the IP or placebo. Treatments were administered under the supervision of the investigator at approximately 8 a.m. on Day 1.
(§4) Blood samples (6 mL per time point) for pharmacokinetic analyses were collected on Day 1 pre‐dose and at the following post‐dose time points: 0.5,1, 1.5 (cohorts 1–4 only), 2, 2.5, 3, 4, 5 (cohorts 5–8 only), 6, 9, 12, 24, 48 and 72 h. […] Within 30 min of blood collection, blood samples were centrifuged at 1500g for 10 min at 4 °C and 500 μL of plasma were transferred into pre‐labelled polypropylene tubes prefilled with phosphoric acid 2% (1:1, v:v). Tubes were capped immediately for each time point, and the plasma was frozen in an upright position at −80 °C for storage.
(§5) Concentrations of DNDI‐6148 were determined in acidified plasma and acidified urine/BSA mixture using a validated internally standardized liquid chromatography–tandem mass spectrometry (LC–MS/MS) assay with deuterated d4‐DNDI‐6148 as an internal standard. The lower limit of quantitation (LOQ) for DNDI‐6148 was 1 ng/mL in plasma and 10 ng/mL in urine.
(§6) Values that were below the LOQ before the first concentration equal or above LOQ were set to zero. Other values below the LOQ were not used to calculate the PK parameters. The area under the plasma concentration‐time curve from time zero (pre‐dose) to the time of last quantifiable concentration (AUC0‐last) was calculated using the linear‐log trapezoidal rule. Elimination half‐life (t1/2) was calculated by the equation ln2/λz, after visual inspection of the plasma concentration‐time profiles (considering a minimum of 3 data points, including the last measurable data point and excluding Cmax).
(§7) PK parameters were derived from plasma concentration vs. time data using non‐compartmental analysis in Phoenix WinNonlin® 8.1 (Certara Inc., Princeton, NJ, USA). Plasma concentration vs. time data and PK parameters were listed and summarized by dose level, using descriptive statistics. Mean concentrations were calculated only if at least ⅔ of the individual concentrations were above the lower LOQ (LLOQ). […] Planned sampling times were used to summarize plasma concentration data; actual sampling times were used in the derivation of PK parameters.

L. donovani [5] = conditions: cited from earlier work
L. infantum [6] = conditions: cited from earlier work
L. donovani [7] = conditions: 25 mg/kg BID for five days, oral; cited from earlier work
L. infantum [8] = conditions: 25 mg/kg BID for five days, oral; cited from earlier work
[9] = cited from earlier work
[10] = pH 7.4; cited from earlier work
[11] = cited from earlier work; remark: listed apart in the source
[12] = Plasma pharmacokinetics, first-in-human single ascending oral dose study
Protocol: as §2, §3, §4, §5, §6, §7

Compound: Cc1c(C(=O)Nc2ccc3c(c2)B(O)OC3)nnn1-c1ccccn1 [DNDI‐6148]
- fraction of the dose excreted by the kidneys as unchanged drug [1]: below 0.2%
- TEAE Musculoskeletal and connective tissue disorders, participants n (%) [events] ([2]; 10 mg (N = 6)): 0
- TEAE Musculoskeletal and connective tissue disorders, participants n (%) [events] ([2]; 80 mg (N = 6)): 0
- TEAE Musculoskeletal and connective tissue disorders, participants n (%) [events] ([2]; 160 mg (N = 6)): 0
- TEAE Musculoskeletal and connective tissue disorders, participants n (%) [events] ([2]; 220 mg (N = 6)): 0
- TEAE Musculoskeletal and connective tissue disorders, participants n (%) [events] ([2]; 380 mg (N = 6)): 0
- TEAEs (events) ([2]; in vivo): 10
- participants with TEAEs ([2]; in vivo): 8
- participants with TEAEs, percentage ([2]; in vivo): 14.3%
- maximal tolerated dose ([2]; single doses 10–380 mg): not reached
- largest mean ΔΔQTcG ([3]; 160 mg, 12 h post-dose): 7.24 ms
- mean ΔΔQTcG ([3]; 380 mg, 9 h post-dose): 1.83 ms
- QTcG changes from baseline ([3]; all doses): ≤ 30 ms
- QTcG values ([3]; all doses): ≤ 450 ms
- QTcF value >500 msec or change from baseline QTcF >60 msec ([3]; any participant): No QTcF value >500 msec or change from baseline QTcF >60 msec was recorded
- upper limit of the 90% CI of ΔΔQTcF ([3]; any single dose, concentration‐response modelling): ≤ 10 ms
- maximum effect on ΔΔQTcF, estimated ([3]; dose of 380 mg, concentration‐response modelling): 1.65 (90% CI: −0.635, 3.94) msec
- CL/F [4]: 2.55 L/h
- in vitro activity against L. donovani (L. donovani [5]): in the micromolar range
- in vitro activity against L. infantum (L. infantum [6]): in the micromolar range
- efficacy in L. donovani mouse model of VL (L. donovani [7]): demonstrated efficacy
- efficacy in L. infantum mouse model of VL (L. infantum [8]): demonstrated efficacy
- unbound fraction in plasma ([9]; humans): 6.6%
- plasma protein binding (bound) ([9]; species not stated): over 93%
- logD [10]: 1.92
- CLint in human liver microsomes [11]: below 0.3 μL/min/mg
- CL/F ([12]; 10 mg single oral dose, GM): 2.89 L/h
- Cmax ([12]; 10 mg single oral dose, GM): 155 ng/mL
- Vd/F ([12]; 10 mg single oral dose, GM): 52.89 L
- t1/2 ([12]; 10 mg single oral dose, GM): 12.7 h
- CL/F ([12]; 10 mg single oral dose, Mean): 2.97 L/h
- Cmax ([12]; 10 mg single oral dose, Mean): 156 ng/mL
- Vd/F ([12]; 10 mg single oral dose, Mean): 53.52 L
- t1/2 ([12]; 10 mg single oral dose, Mean): 12.93 h
- tmax ([12]; 10 mg single oral dose, Mean): 4 h
- CL/F ([12]; 20 mg single oral dose, GM): 2.76 L/h
- Cmax ([12]; 20 mg single oral dose, GM): 292 ng/mL
- Vd/F ([12]; 20 mg single oral dose, GM): 57.51 L
- t1/2 ([12]; 20 mg single oral dose, GM): 14.42 h
- CL/F ([12]; 20 mg single oral dose, Mean): 2.84 L/h
- Cmax ([12]; 20 mg single oral dose, Mean): 296 ng/mL
- Vd/F ([12]; 20 mg single oral dose, Mean): 57.82 L
- t1/2 ([12]; 20 mg single oral dose, Mean): 14.73 h
- tmax ([12]; 20 mg single oral dose, Mean): 4 h
- CL/F ([12]; 40 mg single oral dose, GM): 2.17 L/h
- Cmax ([12]; 40 mg single oral dose, GM): 585 ng/mL
- Vd/F ([12]; 40 mg single oral dose, GM): 61.18 L
- t1/2 ([12]; 40 mg single oral dose, GM): 19.52 h
- CL/F ([12]; 40 mg single oral dose, Mean): 2.36 L/h
- Cmax ([12]; 40 mg single oral dose, Mean): 598 ng/mL
- Vd/F ([12]; 40 mg single oral dose, Mean): 64.01 L
- t1/2 ([12]; 40 mg single oral dose, Mean): 19.91 h
- tmax ([12]; 40 mg single oral dose, Mean): 5 h
- CL/F ([12]; 80 mg single oral dose, GM): 2.17 L/h
- Cmax ([12]; 80 mg single oral dose, GM): 1011 ng/mL
- Vd/F ([12]; 80 mg single oral dose, GM): 69.86 L
- t1/2 ([12]; 80 mg single oral dose, GM): 22.31 h
- CL/F ([12]; 80 mg single oral dose, Mean): 2.51 L/h
- Cmax ([12]; 80 mg single oral dose, Mean): 1021 ng/mL
- Vd/F ([12]; 80 mg single oral dose, Mean): 71.15 L
- t1/2 ([12]; 80 mg single oral dose, Mean): 25.43 h
- tmax ([12]; 80 mg single oral dose, Mean): 9 h
- CL/F ([12]; 160 mg single oral dose, GM): 2.65 L/h
- Cmax ([12]; 160 mg single oral dose, GM): 1815.3 ng/mL
- Vd/F ([12]; 160 mg single oral dose, GM): 68.6 L
- t1/2 ([12]; 160 mg single oral dose, GM): 17.92 h
- CL/F ([12]; 160 mg single oral dose, Mean): 2.83 L/h
- Cmax ([12]; 160 mg single oral dose, Mean): 1825.3 ng/mL
- Vd/F ([12]; 160 mg single oral dose, Mean): 70.79 L
- t1/2 ([12]; 160 mg single oral dose, Mean): 18.28 h
- tmax ([12]; 160 mg single oral dose, Mean): 5 h
- CL/F ([12]; 220 mg single oral dose, GM): 2.42 L/h
- Cmax ([12]; 220 mg single oral dose, GM): 2285.4 ng/mL
- Vd/F ([12]; 220 mg single oral dose, GM): 80.62 L
- t1/2 ([12]; 220 mg single oral dose, GM): 23.10 h
- Cmax ([12]; 220 mg single oral dose, Mean): 2512.3 ng/mL
- Vd/F ([12]; 220 mg single oral dose, Mean): 81.32 L
- t1/2 ([12]; 220 mg single oral dose, Mean): 24.17 h
- tmax ([12]; 220 mg single oral dose, Mean): 5.50 h
- CL/F ([12]; 300 mg single oral dose, GM): 3.02 L/h
- Cmax ([12]; 300 mg single oral dose, GM): 2959.3 ng/mL
- Vd/F ([12]; 300 mg single oral dose, GM): 99.99 L
- t1/2 ([12]; 300 mg single oral dose, GM): 22.91 h
- tmax ([12]; 300 mg single oral dose, GM): 5.12 h
- CL/F ([12]; 300 mg single oral dose, Mean): 3.28 L/h
- Cmax ([12]; 300 mg single oral dose, Mean): 3073.5 ng/mL
- Vd/F ([12]; 300 mg single oral dose, Mean): 104.45 L
- t1/2 ([12]; 300 mg single oral dose, Mean): 23.39 h
- tmax ([12]; 300 mg single oral dose, Mean): 5.00 h
- CL/F ([12]; 380 mg single oral dose, GM): 2.22 L/h
- Cmax ([12]; 380 mg single oral dose, GM): 3487.2 ng/mL
- Vd/F ([12]; 380 mg single oral dose, GM): 79.44 L
- t1/2 ([12]; 380 mg single oral dose, GM): 24.76 h
- tmax ([12]; 380 mg single oral dose, GM): 5.28 h
- CL/F ([12]; 380 mg single oral dose, Mean): 2.26 L/h
- Cmax ([12]; 380 mg single oral dose, Mean): 3606 ng/mL
- Vd/F ([12]; 380 mg single oral dose, Mean): 79.82 L
- t1/2 ([12]; 380 mg single oral dose, Mean): 25.46 h
- tmax ([12]; 380 mg single oral dose, Mean): 5.50 h
- GM half‐life in plasma ([12]; 10 and 20 mg doses): around 13 h
- median tmax, generally ([12]; all dose levels): 4 to 6 h
- GM half‐life in plasma ([12]; higher doses): around 20 h
